According to ChEMBL document CHEMBL3507680, “University of Dundee, Gates Library screen for HepG2 cell viability”:

Experiment: Human HepG2 cell viability assay in 384 well format
Assay type: toxicity, cell-based
Parameters: dose 125 nL, time 70.5 hour; cytotoxicity at 70.5 h: concentration not given beside the values
Settings: HepG2 cells, read-out: Inhibition

In order of rising cytotoxicity at 70.5 h:
1. O=C(CNc1cc(-n2cnnn2)ccc1F)NCc1ccccc1  -118%
2. NC(=O)C1CN(c2ccc3cc(Br)ccc3n2)CCO1 (stereo unspecified)  -109%
3. COCCc1nc(-c2cnn3c(C)cc(C)nc23)no1  -107%
4. CC(C)c1ccc2c(c1)CCCN2C(=O)CN(C)S(C)(=O)=O  -94.4%
5. O=C(O)c1cc(S(=O)(=O)Nc2cccc3c2OCCO3)ccc1F  -18.2%
6. Cc1cccc(C(=O)N(C)CC(=O)N2CCCC2)c1C  -14.8%
7. Cc1cc(C2CCCN2Cc2cc(-c3ccco3)on2)on1 (stereo unspecified)  -14.5%
8. Cc1nc(NS(=O)(=O)c2cc(C)c(Br)cc2C)no1  -14.1%
9. Cc1cc(-c2cnc(NC3CC3)nc2-c2ccco2)on1  -12.6%
10. O=C(c1cnc(NCc2cccnc2)c(Cl)c1)N1CCCCC1  -12.2%
11. COCCC(=O)N1CCCC1c1nccc(C)n1 (stereo unspecified)  -12.1%
12. Cc1nc(NS(=O)(=O)c2cc(Br)ccc2C)no1  -11.8%
13. NC(=O)CN1CCOCC(Cc2ccccc2)C1 (stereo unspecified)  -11.7%
14. CCc1noc(CNc2cc3c(cc2Cl)OCCCO3)n1  -11%
15. O=C(c1cccnc1)N1CCC(c2nc(O)cc(-c3ccncc3)n2)C1 (stereo unspecified)  -10.5%
16. Cc1noc(C)c1CN(C)CCc1nc(-c2cccc(Cl)c2)no1  -10.4%
17. O=C(C1CC1)N1CCc2nc(C3CCN(C(=O)C4CC4)C3)nc(O)c2C1 (stereo unspecified)  -10%
18. CCn1cc(CN2CCc3nc(-c4ccccn4)nc(O)c3C2)cn1  -10%
19. CC1COc2ccccc2N1C(=O)c1cscn1 (stereo unspecified)  -9.82%
20. CC(C)C(=O)NCc1cc(Br)ccc1F  -9.54%
21. O=C(NCC1CCCN1CCc1ccccc1)NCC1(O)CCC1 (stereo unspecified)  -9.32%
22. Cc1nc(CC(=O)N2c3ccccc3OCC2C)cs1 (stereo unspecified)  -9.24%
23. CCC(NC(=O)Cn1ccc(=O)n(C)c1=O)c1ccc(OC)cc1 (stereo unspecified)  -9.09%
24. Cc1ccc(=O)n(CC2(O)CCN(Cc3cccs3)CC2)n1  -8.17%
25. CC(=O)N1CCC(c2ccnc(Nc3cncnc3)n2)CC1  -8.15%
26. Cc1cc(C2CCCN2Cc2nnc(-c3ccco3)o2)on1 (stereo unspecified)  -8.06%
27. CCCNC(=O)c1ccc(NC(=O)NC(C)c2ccccn2)cc1 (stereo unspecified)  -8.01%
28. c1ccc(-c2nnc(C3CCCN(CC4CCCCC4)C3)o2)nc1 (stereo unspecified)  -7.93%
29. NC(=O)C(NC(=O)CCc1ccc(Cl)s1)c1ccccc1 (stereo unspecified)  -7.77%
30. c1cnc2[nH]c(C3CCCC3)c(CN3CCCCC3)c2c1  -7.43%
31. O=C(C1CCC1)N1CCCC(c2ccnc(Nc3cnccn3)n2)C1 (stereo unspecified)  -7.38%
32. CCC(NC(=O)Cn1ccc(=O)n(C)c1=O)c1ccccc1OC (stereo unspecified)  -7%
33. O=C(Cn1ccnc1)N1C[C@@H]2CC[C@H](Oc3cccc(F)c3)[C@@H]2C1  -6.97%
34. CS(=O)(=O)N1CCCC1c1cccc(Cc2ccccc2F)n1 (stereo unspecified)  -6.97%
35. Cc1cc(-c2cnc(NC3CCCC3)nc2-c2ccco2)on1  -6.66%
36. CCN1CCN(Cc2c(C3CCCC3)[nH]c3ncccc23)CC1  -6.15%
37. CC(C)CNC(=O)c1ccc(NC(=O)NC(C)c2ccccn2)cc1 (stereo unspecified)  -5.93%
38. CNC(=O)CCc1cc(C2CCNCC2)nc(C)n1  -5.9%
39. CC1CCCCN1C(=O)CCn1cnc2sccc2c1=O (stereo unspecified)  -5.84%
40. Cc1cc(-c2cnc(NC3CCCC3)nc2-c2ccc(C)o2)on1  -5.77%
41. CCC1COCCN1C(=O)CNC(=O)c1ccoc1C (stereo unspecified)  -5.54%
42. COCCCN(C)c1nc(-c2ccncc2)nc(C)c1C  -5.34%
43. Cc1ncncc1C(=O)N1CCC(O)(CN(C)Cc2ccc(F)cc2)C1 (stereo unspecified)  -5.31%
44. O=C(NCCO)Nc1cnc2cc(Cl)ccc2c1O  -5.27%
45. O=C(c1ccccn1)N1CCC(c2nc(O)cc(-c3ccncc3)n2)C1 (stereo unspecified)  -5.15%
46. CN(C)C(=O)C1CN(Cc2nccs2)CCN(S(C)(=O)=O)C1 (stereo unspecified)  -4.9%
47. Cc1ccc(C)c(Oc2ccc(CNC(=O)C3CCC(=O)N3)cn2)c1 (stereo unspecified)  -4.69%
48. Cc1cc(-c2cnc(NCc3ccc4c(c3)OCO4)nc2C(C)C)on1  -4.67%
49. O=C(NCCn1nc(C2CCNC2)c2cccnc21)c1ccccc1 (stereo unspecified)  -4.57%
50. C=Cn1ncc(CN2CCc3nc(-c4ccncc4)nc(O)c3C2)c1C  -4.39%
51. COC(=O)NCC(=O)N(C)Cc1csc(C)n1  -4.39%
52. CCSc1ccc(NC(=O)NC2CCc3[nH]ncc3C2)cn1 (stereo unspecified)  -4.32%
53. CCC(=O)N1CCC(Cc2cc(Nc3ncccn3)ncn2)CC1  -4.23%
54. CCn1cc(CN2CCC(O)(Cn3nc(C)ccc3=O)CC2)cn1  -4.18%
55. CCC(CC)C(=O)NC1CCCc2nc(N3CCOCC3)ncc21 (stereo unspecified)  -4.12%
56. Cc1nc(NC2CCCC2)cc(C2CCN2C(=O)c2cnn(C)c2)n1 (stereo unspecified)  -3.93%
57. CC(=O)N1CCCC1c1cncc(Oc2ccc(F)cc2)n1 (stereo unspecified)  -3.89%
58. COc1ccc(CN(C(=O)C2CCCOC2)c2ccncc2)cc1 (stereo unspecified)  -3.58%
59. Cc1noc2nc(C3CCCN(Cc4ccncc4)C3)cc(C(F)F)c12 (stereo unspecified)  -3.5%
60. Cc1ccc2c(c1)N(C(=O)c1nccnc1N)CC(C)O2 (stereo unspecified)  -3.11%
61. O=C(NCC1CC1)Nc1cnc2ccc(F)cc2c1O  -3.07%
62. NC(=O)CN1CCCC(CCCc2ccccn2)(C(N)=O)C1 (stereo unspecified)  -3%
63. CCOc1ccc(NC(=O)NC2CCc3[nH]ncc3C2)cn1 (stereo unspecified)  -2.96%
64. Cc1ccc(C(=O)N2CCOC(c3nc(-c4ncccn4)no3)C2)cc1 (stereo unspecified)  -2.85%
65. O=S1(=O)CCC(c2nnc(-c3cnc4onc(C5CC5)c4c3)o2)C1 (stereo unspecified)  -2.78%
66. COc1ccc(CN(Cc2cnc(N)nc2)CC2CCCO2)c(OC)c1 (stereo unspecified)  -2.54%
67. Cc1ccc(CN(Cc2ccncc2)C2CC(C)(C)NC(C)(C)C2)o1  -2.36%
68. CC(=O)NC(=O)C1(CCCc2ccncc2)CCN1 (stereo unspecified)  -2.25%
69. Cc1noc(C)c1Cc1nc(C2CC2)no1  -2.18%
70. O=C(NCCn1nc(C2CCNC2)c2cccnc21)c1ccccn1 (stereo unspecified)  -2.16%
71. CC(C)(C)C(N)c1nc(-c2nnc[nH]2)no1 (stereo unspecified)  -2.07%
72. Cc1ccc(C2CCCN2Cc2nc(-c3ccco3)no2)cc1 (stereo unspecified)  -1.81%
73. c1cnc2[nH]c(C3CCNCC3)c(CN3CCOCC3)c2c1  -1.47%
74. COc1ccc(CNc2cc(-c3nc(C)no3)ccn2)c(OC)c1  -1.3%
75. CC(C)(C)C(=O)N1CCC(c2nc(O)cc(-c3ccncc3)n2)CC1  -1.05%
76. c1cnc2c(c1)cc([C@H]1CCCO1)n2CCN1CCCC1  -1.04%
77. CCn1cc(CN2CCC(O)(Cn3ccc4ncccc43)CC2)cn1  -0.72%
78. Cc1cc(C2CCCN2Cc2nc(-c3ccco3)no2)on1 (stereo unspecified)  -0.568%
79. CC(=O)NC1CCN(C(=O)Nc2cccc(SC(F)F)c2)CC1  -0.185%
80. Cc1noc(C)c1CS(=O)(=O)Cc1nc(C2CC2)no1  -0.106%
81. CC(NC(=O)CCN1CCOC1=O)(c1ccccc1)c1ccccc1  0.0243%
82. O=C(NC1CC1)C1(Cc2cc(-c3ccc(F)cc3F)no2)CCOCC1  0.221%
83. CC(NC(N)=O)C(=O)NCc1ccc(Br)c(F)c1 (stereo unspecified)  0.261%
84. Cc1ncsc1C(=O)N1CCCC(c2cc(C(F)F)n3ncnc3n2)C1 (stereo unspecified)  0.833%
85. c1nc2onc(C3CC3)c2cc1-c1nnc(C2CC2)o1  1.7%
86. Cc1c(Cl)cccc1NC(=O)CN(Cc1cccnc1)C(C)C  1.97%
87. CS(=O)(=O)CCC(=O)N1CCC(c2ccc(F)c(F)c2)CC1  2.26%
88. CN(C)CCn1c([C@@H]2CCCO2)cc2cccnc21  2.42%
89. O=C(C1CCCOC1)N(CC(F)F)c1cccc(Cl)c1 (stereo unspecified)  2.67%
90. Cc1ccc2c(c1)CN(C(=O)c1cccnc1)C(CN(C)C)CO2 (stereo unspecified)  3.4%
91. CC1COc2ccccc2N1C(=O)CCc1cscn1 (stereo unspecified)  3.54%
92. O=C(Nc1ccc(-c2csnn2)cc1)N1CCN2CCCCC2C1 (stereo unspecified)  5.22%
93. Cc1noc(C)c1CN(C)C(=O)C1CCCCN1CC(C)C (stereo unspecified)  5.24%
94. COc1ccc(CNCCC(=O)N2CCc3sccc3C2)cc1O  5.44%
95. OC1(Cn2ccc3ncccc32)CCN(Cc2cc(F)cc(F)c2)CC1  5.69%
96. NC(=O)C1(c2cnccn2)CCCN1Cc1ccc(F)c(F)c1 (stereo unspecified)  7.58%
97. CC(C)OCCS(=O)(=O)NC1CCN(C2CCCC2)C1 (stereo unspecified)  8.61%
98. O=C(O)C1(Cc2cccc(-c3ccc(F)cc3)c2)CCOCC1  9.21%
99. Cc1ccccc1CN(C)C(=O)c1cc(C2CCCN2C)ccn1 (stereo unspecified)  10.5%
100. Cc1ncsc1CN1CCN(C2CCOCC2)CC(C(N)=O)C1 (stereo unspecified)  10.5%
101. COc1ccccc1CN1CCc2c(nc(-c3ccccn3)[nH]c2=O)C1  12.7%
102. Cc1cccc2nc(CN3CCCC(C)C3)cc(=O)n12 (stereo unspecified)  13.9%
103. Cc1ccc2c(c1)CN(C(=O)c1cnc(C)cn1)C(CN(C)C)CO2 (stereo unspecified)  14.1%
104. CC1CCC(N2CCC(NS(=O)(=O)CCOC(C)C)CC2)CC1 (stereo unspecified)  14.8%
105. CNC(=O)C1(CCCc2ccncc2)CCCCN1 (stereo unspecified)  15.5%
106. O=c1oc(-c2ccc(F)cc2)nn1CC1CCOC1 (stereo unspecified)  16.4%
107. O=S(=O)(NCCCn1ccc2ccccc21)N1CCCCC1  16.7%
108. Cc1ccc(CN(Cc2[nH]cnc2C)C2CC(C)(C)NC(C)(C)C2)o1  17.5%
109. Cc1noc(C)c1CN(C)C(=O)C1CCCN1S(N)(=O)=O (stereo unspecified)  17.7%
110. COCCC(=O)N1CCCC(c2nc(O)cc(-c3ccncc3)n2)C1 (stereo unspecified)  18%
111. Cc1nn(C)c(C)c1OCC(=O)N1CCCc2c(F)ccc(F)c21  18.1%
112. CCC(C)(NC(=O)CCN1CCOC1=O)C(=O)OC (stereo unspecified)  20.8%
113. Cc1ccc([C@]2(O)CC[C@H]3CN(Cc4ccc(Cl)cc4Cl)C[C@H]32)nc1  27.6%
114. CCC(=O)N1CCC(c2nc(O)c3c(n2)CN(C2CCCCC2)CC3)C1 (stereo unspecified)  31.2%
115. CC(C)N(CC(=O)Nc1ccc(Br)cc1Cl)Cc1cccnc1  38.4%
116. CSc1ccc(CN2C[C@@H]3CC[C@@](O)(c4ccc(C)cn4)[C@@H]3C2)cc1  41.8%
